In patent US20180177219A1, “FAST-DISSOLVING CO-CRYSTALLINE LACTOSE” (NESTEC S.A., priority 2015, published 2018):

Legend:
Assay type in all cases: physicochemical
[1] = Dissolution of an individual crystal filmed under a microscope, no agitation; settings: room temperature; for time to complete dissolution of an individual crystal: crystals comparable in size and morphology
Procedure: The dissolution of the individual crystals was filmed under a microscope using a high-resolution camera and film-stills of the progressing dissolution were analyzed (area of remaining solid material) until complete dissolution was achieved.
Dissolution kinetics were measured over a time period of 0 to 36 seconds.
The dissolution kinetics of an individual α-lactose.CaCl2.7 H2O co-crystal (▪) in comparison to α-lactose monohydrate (▴) in water were determined. Dissolution kinetics were measured over a time period of 0 to 36 seconds at room temperature without stirring.

[2] = Dissolution kinetics by online refractometry (normalized refractive index), stirred; settings: particle size 60-90 μm; for amount of solid dissolved in water within 20 seconds: 60 ml, stirring 500 rpm, ambient temperature (20° C.)
Procedure: Dissolution kinetics were measured by online-refractometry in water over a time period of 0 to 100 seconds while stirring at 500 rpm at ambient temperature (20° C.).
The dissolution kinetics of 2 g of lactose.CaCl2.7 H2O co-crystals in water (♦) in comparison to 1.24 g of pure lactose monohydrate in water (▪), 1.24 g of lactose monohydrate in 0.52 g calcium chloride solution (▴) and a physical mixture of 1.24 g of lactose monohydrate and 0.52 g of calcium chloride dihydrate in water (X) were measured by refractometry at room temperature over a time period of 0 to 100 seconds while stirring the solution.

[3] = Dynamic vapor sorption (moisture tolerance); settings: 25° C., 120 hours, relative humidity augmented stepwise
Procedure: The physical mixture contains the same molar quantities of lactose and calcium chloride as compared to the co-crystalline material. The straight (horizontal) line corresponds to an uptake of five equivalents of water. dm: mass gain in percent; RH: relative humidity in percent.
Dynamic vapor sorption experiments were performed for lactose.calcium salt co-crystals in comparison to a physical mixture of lactose monohydrate and calcium chloride dihydrate. The physical mixture contains the same molar quantities of lactose and calcium chloride as compared to the co-crystalline material.
Measurements were conducted over 120 hours at a temperature of 25° C. and relative humidity was augmented stepwise until the samples fully liquefied.

Compound: O.OC[C@H]1O[C@@H](O[C@H]2[C@H](O)[C@@H](O)C(O)O[C@@H]2CO)[C@H](O)[C@@H](O)[C@H]1O (stereo partly drawn) [lactose monohydrate, reference compound]
- time for complete dissolution relative to lactose.CaCl2.7 H2O co-crystal (times as long) ([1]; individual crystal, liquid phase not agitated): roughly seven
- time to complete dissolution of an individual crystal ([1]; water, without stirring): about 36 seconds
- amount of solid dissolved in calcium chloride solution within 20 seconds ([2]; 1.24 g in 0.52 g calcium chloride solution, stirring, room temperature): about 30%
- amount of solid dissolved in water within 20 seconds [2]: about 20%

Compound: O.O.O.O.O.O.O.OC[C@H]1O[C@@H](O[C@H]2[C@H](O)[C@@H](O)C(O)O[C@@H]2CO)[C@H](O)[C@@H](O)[C@H]1O.[Ca+2].[Cl-].[Cl-] (stereo partly drawn) [lactose.CaCl2.7 H2O co-crystals, lactose.calcium chloride.7 H2O]
- dissolution speed relative to lactose monohydrate (times faster) ([1]; individual crystal, water, without stirring): 14 to 15 times
- time to complete dissolution of an individual crystal ([1]; water, without stirring): about 2.5 seconds
- amount of solid dissolved in water within 20 seconds [2]: about 85%
- moisture absorption behaviour [3]: gradually continued to absorb moisture in parallel with augmentation of relative humidity
- moisture tolerance compared to physical mixture of lactose monohydrate and calcium chloride dihydrate [3]: improved moisture tolerance
